Assay results from paper PMC6905430 (Biochemistry, 2019).

What was measured:
[1] = molecular target: wild type DXP synthase (Escherichia coli, UniProt P77488); test: Anaerobic limited trypsinolysis in the presence of MAP; set-up: species or system E. coli; details: preincubation with MAP 65 μM, 45 min, 6 °C; trypsin 4.5 ng/μL; up to 150 min
[2] = molecular target: H299A DXP synthase (Escherichia coli, UniProt P77488, H299A); assay type: biochemical, E. coli; details: H299A vs wild type
[3] = molecular target: H299N DXP synthase (Escherichia coli, UniProt P77488, H299N); assay type: biochemical, E. coli
[4] = molecular target: H49N DXP synthase (Escherichia coli, UniProt P77488, H49N); assay type: biochemical, E. coli; details: read-out: Km^app,pyruvate; anaerobic; pyruvate varied, D-GAP 500 μM; n = 3
[5] = molecular target: H49A DXP synthase (Escherichia coli, UniProt P77488, H49A); assay type: biochemical, E. coli
[6] = read-out: Km^app,pyruvate, anaerobic, pyruvate varied, D-GAP 500 μM, n = 3

Row | SMILES | effect of MAP on trypsinolysis profile [1] | decrease in kcat/Km^pyruvate relative to wild type DXP synthase [2] | decrease in kcat/Km^pyruvate relative to wild type DXP synthase ([3]; H299N vs wild type) | Km [3, 6] | Km [4] | decrease in kcat/Km^pyruvate compared to wild type DXP synthase ([5]; H49A vs wild type) | Km [5, 6]
1 | COP(=O)(O)C(C)=O [MAP, methylacetylphosphonate] | K313 is protected from typsinolysis |  |  |  |  |  | 
2 | CC(=O)C(=O)O [pyruvate] |  | 846 fold | 185 fold | 1080 µM | 1610 µM | 76 fold | 1070 µM
